Source: the Kinase Knowledgebase extract (Sharma et al. 2016)
pIC50: −log10 of the molar value.

target: ROCK1;ROCK2 (human) (UniProt O75116); experiment: Inhibition of ROCK1/ROCK2 Kinase Activity
Sequence (O75116 whole entry, looked up): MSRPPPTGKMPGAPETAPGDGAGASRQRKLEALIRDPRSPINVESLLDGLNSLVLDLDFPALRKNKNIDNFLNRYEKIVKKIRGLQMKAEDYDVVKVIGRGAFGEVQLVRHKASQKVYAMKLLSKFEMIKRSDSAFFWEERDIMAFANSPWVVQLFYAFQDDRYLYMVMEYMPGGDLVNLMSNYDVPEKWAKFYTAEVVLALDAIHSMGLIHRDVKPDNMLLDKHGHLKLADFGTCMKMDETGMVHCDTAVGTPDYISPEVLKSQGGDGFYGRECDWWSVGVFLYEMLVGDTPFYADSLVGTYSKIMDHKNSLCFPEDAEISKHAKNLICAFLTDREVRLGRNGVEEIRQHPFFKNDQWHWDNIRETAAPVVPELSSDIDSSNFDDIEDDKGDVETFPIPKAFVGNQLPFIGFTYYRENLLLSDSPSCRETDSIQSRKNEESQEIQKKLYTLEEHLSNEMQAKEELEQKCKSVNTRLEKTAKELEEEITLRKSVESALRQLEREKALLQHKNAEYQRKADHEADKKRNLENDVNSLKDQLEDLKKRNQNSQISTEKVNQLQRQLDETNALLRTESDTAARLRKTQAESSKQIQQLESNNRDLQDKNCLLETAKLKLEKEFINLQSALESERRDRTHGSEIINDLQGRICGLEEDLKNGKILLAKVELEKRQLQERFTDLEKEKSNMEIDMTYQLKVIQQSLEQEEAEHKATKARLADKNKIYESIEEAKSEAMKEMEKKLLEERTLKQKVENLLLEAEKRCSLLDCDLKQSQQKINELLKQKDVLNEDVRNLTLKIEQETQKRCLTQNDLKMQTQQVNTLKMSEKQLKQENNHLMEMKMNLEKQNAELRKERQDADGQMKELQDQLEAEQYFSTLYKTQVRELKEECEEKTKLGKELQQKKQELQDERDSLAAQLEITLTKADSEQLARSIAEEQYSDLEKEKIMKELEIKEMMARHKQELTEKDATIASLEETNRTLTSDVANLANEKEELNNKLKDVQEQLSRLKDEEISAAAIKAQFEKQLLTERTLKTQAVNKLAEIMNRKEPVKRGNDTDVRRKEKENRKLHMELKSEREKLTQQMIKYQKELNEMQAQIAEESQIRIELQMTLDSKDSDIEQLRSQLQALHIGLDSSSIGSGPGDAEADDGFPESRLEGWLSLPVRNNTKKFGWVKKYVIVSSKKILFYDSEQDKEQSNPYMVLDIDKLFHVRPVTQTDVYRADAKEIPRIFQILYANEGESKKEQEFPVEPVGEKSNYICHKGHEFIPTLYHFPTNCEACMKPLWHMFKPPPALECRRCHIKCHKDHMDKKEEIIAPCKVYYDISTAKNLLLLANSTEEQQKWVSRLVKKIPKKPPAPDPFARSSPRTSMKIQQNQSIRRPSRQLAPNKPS

Compound	pIC50
CC(N)c1ccc(C(=O)Nc2ccncc2)cc1NC(=O)c1cccc(Cl)c1 (stereo unspecified)	6.30 to 7.30
CC(N)c1ccc(C(=O)Nc2ccncc2)cc1NC(=O)c1ccccc1 (stereo unspecified)	6.30 to 7.30
CC(N)c1ccc(C(=O)Nc2ccncc2)cc1-c1ccc(F)cc1 (stereo unspecified)	> 7.30
CC(N)c1ccc(C(=O)Nc2ccncc2)cc1NC(=O)c1ccco1 (stereo unspecified)	6.30 to 7.30
CC(N)c1ccc(C(=O)Nc2ccncc2)cc1OCCCO (stereo unspecified)	5.30 to 6.30
CC(N)c1ccc(C(=O)Nc2ccncc2)cc1-c1ccc2ccccc2c1 (stereo unspecified)	> 7.30
CC(N)c1ccc(C(=O)Nc2ccncc2)cc1NC(=O)c1ccc(Cl)cc1 (stereo unspecified)	6.30 to 7.30
CC(N)c1ccc(C(=O)Nc2ccncc2)cc1OCCO (stereo unspecified)	5.30 to 6.30
CC(N)c1ccc(C(=O)Nc2ccncc2)cc1OCCCN (stereo unspecified)	5.30 to 6.30
CC(N)c1ccc(C(=O)Nc2ccncc2)cc1O (stereo unspecified)	5.30 to 6.30
CC(N)c1ccc(C(=O)Nc2ccncc2)cc1N (stereo unspecified)	5.30 to 6.30
COc1cccc(C(=O)Nc2cc(C(=O)Nc3ccncc3)ccc2C(C)N)c1 (stereo unspecified)	> 7.30
CC(N)c1ccc(C(=O)Nc2ccncc2)cc1NC(=O)Nc1ccccc1 (stereo unspecified)	6.30 to 7.30
COc1ccc(-c2cc(C(=O)Nc3ccncc3)ccc2C(C)N)cc1 (stereo unspecified)	6.30 to 7.30
CC(N)c1ccc(C(=O)Nc2ccncc2)cc1-c1cccs1 (stereo unspecified)	> 7.30
CC(N)c1ccc(C(=O)Nc2ccncc2)cc1OCc1ccccc1 (stereo unspecified)	6.30 to 7.30
COc1ccc(C(=O)Nc2cc(C(=O)Nc3ccncc3)ccc2C(C)N)cc1 (stereo unspecified)	> 7.30
C[C@@H](N)c1ccc(C(=O)Nc2ccncc2)cc1-c1cccs1	> 7.30
CC(N)c1ccc(C(=O)Nc2ccncc2)cc1-c1cccc(Cl)c1 (stereo unspecified)	> 7.30
CC(N)c1ccc(C(=O)Nc2ccncc2)cc1-c1ccc(Cl)cc1 (stereo unspecified)	> 7.30
CC(N)c1ccc(C(=O)Nc2ccncc2)cc1-c1ccoc1 (stereo unspecified)	6.30 to 7.30
CC(N)c1ccc(C(=O)Nc2ccncc2)cc1NCc1ccco1 (stereo unspecified)	6.30 to 7.30
CC(N)c1ccc(C(=O)Nc2ccncc2)cc1[N+](=O)[O-] (stereo unspecified)	6.30 to 7.30
CC(N)c1ccc(C(=O)Nc2ccncc2)cc1NC(=S)Nc1ccccc1 (stereo unspecified)	6.30 to 7.30
CC(N)c1ccc(C(=O)Nc2ccncc2)cc1OCCN (stereo unspecified)	5.30 to 6.30
C[C@H](N)c1ccc(C(=O)Nc2ccncc2)cc1-c1cccs1	6.30 to 7.30
